Results published in patent US20040063662A1, “Selenophene anti-tumor agents” (priority 1996, published 2004).

Assays:
K-562 = test: NCI human tumor cell panel: K-562 (Leukemia); assay type: cell-based; conditions: K562, K-562, Leukemia; for GI50: read-out: Log10 GI50 (converted); for IC (TGI): read-out: Log10 TGI (converted)
SF-268 = test: NCI human tumor cell panel: SF-268 (CNS Cancer); assay type: cell-based; conditions: SF-268, CNS Cancer; for GI50: read-out: Log10 GI50 (converted); for IC (TGI): read-out: Log10 TGI (converted)
MALME-3M = test: NCI human tumor cell panel: MALME-3M (Melanoma); assay type: cell-based; conditions: MALME-3M, Melanoma; for GI50: read-out: Log10 GI50 (converted); for IC (TGI): read-out: Log10 TGI (converted)
OVCAR-3 = test: NCI human tumor cell panel: OVCAR-3 (Ovarian Cancer); assay type: cell-based; conditions: OVCAR-3, Ovarian Cancer; for GI50: read-out: Log10 GI50 (converted); for IC (TGI): read-out: Log10 TGI (converted)
A549/ATCC = test: NCI human tumor cell panel: A549/ATCC (Non-Small Cell Lung Cancer); assay type: cell-based; conditions: Non-Small Cell Lung Cancer; for GI50: read-out: Log10 GI50 (converted); for IC (TGI): read-out: Log10 TGI (converted)
HCT-15 = test: NCI human tumor cell panel: HCT-15 (Colon Cancer); assay type: cell-based; conditions: HCT-15, Colon Cancer; for GI50: read-out: Log10 GI50 (converted); for IC (TGI): read-out: Log10 TGI (converted)
HCC-2998 = test: NCI human tumor cell panel: HCC-2998 (Colon Cancer); assay type: cell-based; conditions: HCC-2998, Colon Cancer; for GI50: read-out: Log10 GI50 (converted); for IC (TGI): read-out: Log10 TGI (converted)
MOLT-4 = test: NCI human tumor cell panel: MOLT-4 (Leukemia); assay type: cell-based; conditions: MOLT-4, Leukemia; for GI50: read-out: Log10 GI50 (converted); for IC (TGI): read-out: Log10 TGI (converted)
T-47D = test: NCI human tumor cell panel: T-47D (Breast Cancer); assay type: cell-based; conditions: T47D, Breast Cancer; for GI50: read-out: Log10 GI50 (converted); for IC (TGI): read-out: Log10 TGI (converted)
SK-MEL-28 = test: NCI human tumor cell panel: SK-MEL-28 (Melanoma); assay type: cell-based; conditions: SK-MEL-28, Melanoma; for GI50: read-out: Log10 GI50 (converted); for IC (TGI): read-out: Log10 TGI (converted)
COLO 205 = test: NCI human tumor cell panel: COLO 205 (Colon Cancer); assay type: cell-based; conditions: COLO 205, Colon Cancer; for GI50: read-out: Log10 GI50 (converted); for IC (TGI): read-out: Log10 TGI (converted)
EKVX = test: NCI human tumor cell panel: EKVX (Non-Small Cell Lung Cancer); assay type: cell-based; conditions: Non-Small Cell Lung Cancer; for GI50: read-out: Log10 GI50 (converted); for IC (TGI): read-out: Log10 TGI (converted)
SNB-19 = test: NCI human tumor cell panel: SNB-19 (CNS Cancer); assay type: cell-based; conditions: SNB-19, CNS Cancer; for GI50: read-out: Log10 GI50 (converted); for IC (TGI): read-out: Log10 TGI (converted)
CAKI-1 = test: NCI human tumor cell panel: CAKI-1 (Renal Cancer); assay type: cell-based; conditions: CAKI-1, Renal Cancer; for GI50: read-out: Log10 GI50 (converted); for IC (TGI): read-out: Log10 TGI (converted)
TK-10 = test: NCI human tumor cell panel: TK-10 (Renal Cancer); assay type: cell-based; conditions: TK-10, Renal Cancer; for GI50: read-out: Log10 GI50 (converted); for IC (TGI): read-out: Log10 TGI (converted)
RXF-393 = test: NCI human tumor cell panel: RXF-393 (Renal Cancer); assay type: cell-based; conditions: RXF-393, Renal Cancer; for GI50: read-out: Log10 GI50 (converted); for IC (TGI): read-out: Log10 TGI (converted)
ACHN = test: NCI human tumor cell panel: ACHN (Renal Cancer); assay type: cell-based; conditions: Renal Cancer; for GI50: read-out: Log10 GI50 (converted); for IC (TGI): read-out: Log10 TGI (converted)
MDA-MB-231/ATCC = test: NCI human tumor cell panel: MDA-MB-231/ATCC (Breast Cancer); assay type: cell-based; conditions: Homo sapiens, MDA-MB-231, MDA-MB-231/ATCC, Breast Cancer
NCI-H522 = test: NCI human tumor cell panel: NCI-H522 (Non-Small Cell Lung Cancer); conditions: for GI50: NCI-H522, read-out: Log10 GI50 (converted); for IC (TGI): NCI-H522, read-out: Log10 TGI
NCI-H226 = test: NCI human tumor cell panel: NCI-H226 (Non-Small Cell Lung Cancer); assay type: cell-based; conditions: NCI-H226, Non-Small Cell Lung Cancer; for GI50: read-out: Log10 GI50 (converted); for IC (TGI): read-out: Log10 TGI (converted)
NCI-H322M = test: cells; assay type: cell-based; conditions: Homo sapiens, Non-Small Cell Lung Cancer; for GI50: read-out: Log10 GI50 (converted); for IC (TGI): read-out: Log10 TGI (converted)
HT29 = test: NCI human tumor cell panel: HT29 (Colon Cancer); assay type: cell-based; conditions: HT-29, HT29, Colon Cancer; for GI50: read-out: Log10 GI50 (converted); for IC (TGI): read-out: Log10 TGI (converted)
HL-60(TB) = test: NCI human tumor cell panel: HL-60(TB) (Leukemia); assay type: cell-based; conditions: Leukemia; for GI50: read-out: Log10 GI50 (converted)
KM12 = test: NCI human tumor cell panel: KM12 (Colon Cancer); assay type: cell-based; conditions: KM12, Colon Cancer; for GI50: read-out: Log10 GI50 (converted); for IC (TGI): read-out: Log10 TGI (converted)
PC-3 = test: NCI human tumor cell panel: PC-3 (Prostate Cancer); assay type: cell-based; conditions: PC-3, Prostate Cancer; for GI50: read-out: Log10 GI50 (converted); for IC (TGI): read-out: Log10 TGI (converted)
U251 = test: NCI human tumor cell panel: U251 (CNS Cancer); assay type: cell-based; conditions: U-251, U251, CNS Cancer; for GI50: read-out: Log10 GI50 (converted); for IC (TGI): read-out: Log10 TGI (converted)
HCT-116 = test: NCI human tumor cell panel: HCT-116 (Colon Cancer); assay type: cell-based; conditions: HCT-116, Colon Cancer; for GI50: read-out: Log10 GI50 (converted); for IC (TGI): read-out: Log10 TGI (converted)
[1] = test system: panel of sixty different human tumor cell lines; test: NCI human tumor cell panel: whole panel (mean graph summary)

With O=Cc1ccc(-c2ccc(-c3ccc(C=O)[se]3)[se]2)[se]1 [NSC 675245] the GI50 (K-562) was 6.76 µM, the IC (TGI) (K-562) was greater than 100 µM and the GI50 (SF-268) was greater than 100 µM. For the same compound, the IC (TGI) (SF-268) was greater than 100 µM, the GI50 (MALME-3M) was greater than 100 µM and the IC (TGI) (MALME-3M) was greater than 100 µM. It also gave a GI50 (OVCAR-3) of 0.389 µM, an IC (TGI) (OVCAR-3) greater than 100 µM and a GI50 (A549/ATCC) greater than 100 µM. It also gave an IC (TGI) (A549/ATCC) greater than 100 µM, a GI50 (HCT-15) greater than 100 µM and an IC (TGI) (HCT-15) greater than 100 µM. For the same compound, the GI50 (HCC-2998) was 4.79 µM, the IC (TGI) (HCC-2998) was greater than 100 µM and the GI50 (MOLT-4) was greater than 100 µM. It also gave an IC (TGI) (MOLT-4) greater than 100 µM, a GI50 (T-47D) of 15.8 µM and an IC (TGI) (T-47D) greater than 100 µM. For the same compound, the GI50 (SK-MEL-28) was greater than 100 µM, the IC (TGI) (SK-MEL-28) was greater than 100 µM and the GI50 (COLO 205) was greater than 100 µM. The IC (TGI) (COLO 205) was greater than 100 µM, the GI50 (EKVX) was greater than 100 µM and the IC (TGI) (EKVX) was greater than 100 µM. For the same compound, the GI50 (SNB-19) was 29.5 µM, the IC (TGI) (SNB-19) was greater than 100 µM and the GI50 (CAKI-1) was 0.269 µM. The IC (TGI) (CAKI-1) was 0.933 µM, the GI50 (TK-10) was 0.257 µM and the IC (TGI) (TK-10) was 0.813 µM. The GI50 (RXF-393) was 12 µM, the IC (TGI) (RXF-393) was greater than 100 µM and the GI50 (ACHN) was 57.5 µM. For the same compound, the IC (TGI) (ACHN) was greater than 100 µM, the GI50 (MDA-MB-231/ATCC; read-out: Log10 GI50 (converted)) was greater than 100 µM and the IC (TGI) (MDA-MB-231/ATCC; read-out: Log10 TGI (converted)) was greater than 100 µM. The GI50 (NCI-H522) was 21.9 µM, the IC (TGI) (NCI-H522) was 45.7 µM and the GI50 (NCI-H226) was 0.977 µM. For the same compound, the IC (TGI) (NCI-H226) was 3.63 µM, the GI50 (NCI-H322M) was greater than 100 µM and the IC (TGI) (NCI-H322M) was greater than 100 µM. For the same compound, the GI50 (HT29) was greater than 100 µM, the IC (TGI) (HT29) was greater than 100 µM and the GI50 (HL-60(TB)) was greater than 100 µM. The IC (TGI) (HL-60(TB); read-out: Log10 TGI) was greater than 100 µM, the GI50 (KM12) was greater than 100 µM and the IC (TGI) (KM12) was greater than 100 µM. It also gave a GI50 (PC-3) greater than 100 µM, an IC (TGI) (PC-3) greater than 100 µM and a GI50 (U251) of 1.05 µM. For the same compound, the IC (TGI) (U251) was greater than 100 µM, the GI50 (HCT-116) was 0.692 µM and the IC (TGI) (HCT-116) was greater than 100 µM.
O=Cc1ccc(-c2ccc(-c3ccc[se]3)[se]2)[se]1 [NSC 675244] was tested, and the GI50 ([1]; Homo sapiens, read-out: Log10 GI50, cell line not given (converted)) was 3.8 µM, the CC50 ([1]; Homo sapiens, read-out: Log10 LC50, cell line not given (converted)) was greater than 100 µM and the “Log10 GI50” value ([1]; cell line not given) was −5.39. For the same compound, the “Log10 TGI” value ([1]; cell line not given) was −4.45, the GI50 (K-562) was 1.35 µM and the IC (TGI) (K-562) was 33.1 µM. It also gave a GI50 (SF-268) of 4.47 µM, an IC (TGI) (SF-268) of 57.5 µM and a GI50 (MALME-3M) of 12.6 µM. It also gave an IC (TGI) (MALME-3M) of 28.2 µM, a GI50 (OVCAR-3) of 0.282 µM and an IC (TGI) (OVCAR-3) of 7.94 µM. It also gave a GI50 (A549/ATCC) of 13.5 µM, an IC (TGI) (A549/ATCC) of 26.3 µM and a GI50 (HCT-15) of 7.41 µM. For the same compound, the IC (TGI) (HCT-15) was 26.3 µM, the GI50 (HCC-2998) was 2.51 µM and the IC (TGI) (HCC-2998) was 11.5 µM. For the same compound, the GI50 (MOLT-4) was 2.4 µM, the IC (TGI) (MOLT-4) was 7.59 µM and the GI50 (T-47D) was 11.2 µM. It also gave an IC (TGI) (T-47D) of 23.4 µM, a GI50 (SK-MEL-28) of 13.2 µM and an IC (TGI) (SK-MEL-28) of 26.9 µM. For the same compound, the GI50 (COLO 205) was 3.16 µM, the IC (TGI) (COLO 205) was 12 µM and the GI50 (EKVX) was 25.1 µM. For the same compound, the IC (TGI) (EKVX) was 64.6 µM, the GI50 (SNB-19) was 10.2 µM and the IC (TGI) (SNB-19) was 30.2 µM. The GI50 (CAKI-1) was 0.204 µM, the IC (TGI) (CAKI-1) was 0.708 µM and the GI50 (TK-10) was 0.288 µM. The IC (TGI) (TK-10) was 0.891 µM, the GI50 (RXF-393) was 1.95 µM and the IC (TGI) (RXF-393) was 8.13 µM. It also gave a GI50 (ACHN) of 10.2 µM, an IC (TGI) (ACHN) of 21.9 µM and a GI50 (NCI-H522) of 5.25 µM. The IC (TGI) (NCI-H522) was 17.4 µM, the GI50 (NCI-H226) was 2.24 µM and the IC (TGI) (NCI-H226) was 5.13 µM. For the same compound, the GI50 (NCI-H322M) was 13.2 µM, the IC (TGI) (NCI-H322M) was 28.2 µM and the GI50 (HT29) was 3.24 µM. The IC (TGI) (HT29) was 13.2 µM, the GI50 (HL-60(TB)) was 2.45 µM and the GI50 (KM12) was 6.31 µM. For the same compound, the IC (TGI) (KM12) was 19.5 µM, the GI50 (PC-3) was 12 µM and the IC (TGI) (PC-3) was 32.4 µM. It also gave a GI50 (U251) of 0.316 µM, an IC (TGI) (U251) of 13.8 µM and a GI50 (HCT-116) of 0.38 µM. It also gave an IC (TGI) (HCT-116) of 13.8 µM.
